Converted amounts (≈) assume the structure as drawn. Where two headings read alike, the source gives them in different places.
Experiments:
[1] = test system: S. pneumoniae SP106; type: cell-based; conditions: SP106, plates containing compound at 5× the MIC, 5% sheep blood
[2] = test system: E. coli DH10B EC971 LacZ; assay: MIC, E. coli DH10B recombinantly expressing control gene; conditions: E. coli DH10B, arabinose-induced, ampicillin in medium
[3] = test system: Gram-negative and Gram-positive organisms (clinical isolates); assay: Broth microdilution MIC against clinical isolates (CLSI M7-A8), Table 9; type: cell-based
[4] = test system: H. influenzae HI551; assay: Rat lung infection model; type: in vivo; conditions: H. influenzae intratracheal
[5] = test system: Gram-positive pathogens; assay: Broth microdilution MIC, respiratory/skin pathogens (Table 12)
[6] = test system: E. coli DH10B EC970 TetK; assay: MIC, E. coli DH10B recombinantly expressing tetracycline-resistance gene; conditions: arabinose-induced, ampicillin in medium
[7] = Preliminary pharmacokinetics in Sprague Dawley rats; conditions: rat, in vivo, po; Sprague Dawley rats (n = 3), initial preliminary testing; read-out: oral bioavailability (% F)
[8] = test system: Viridans group streptococci; assay: Broth microdilution MIC by tetracycline resistance phenotype (Table 10); type: cell-based; set-up: unit not given beside the values

Question: Which spontaneous resistance frequency [1] does the source give for `CN(C)[C@@H]1C(O)=C(C(N)=O)C(=O)[C@@]2(O)C(O)=C3C(=O)c4c(O)c5c(c(F)c4C[C@H]3C[C@@H]12)CN(C(C)(C)C)C5` [Compound 102] here?
Answer: 1×10^−8

Question: And the “MIC EC971 LacZ” value [2]?
Answer: 2

Question: What about the “MICs against tetracycline resistant isolates relative to tetracycline susceptible isolates” value [3] of the same compound?
Answer: not notably altered

Question: What about the “MICs relative to tetracycline” value [3] of the same compound?
Answer: comparable MICs relative to tetracycline

Question: What about the “potency against tetracycline resistant isolates” value [3] of the same compound?
Answer: maintained potency

Question: And the “potency by MIC50/MIC90, Gram-positive relative to Gram-negative pathogens” value [3]?
Answer: more potent by MIC50/MIC90 against Gram-positive pathogens relative to Gram-negative pathogens

Question: And the “potency relative to tetracycline” value [3]?
Answer: more potent

Question: And the MIC50 ([3]; Acinetobacter lwoffii, n=29, read-out: MIC50)?
Answer: 0.12 µg/mL (≈ 0.227 µM)

Question: What about the MIC90 ([3]; Acinetobacter lwoffii, n=29, read-out: MIC90) of the same compound?
Answer: 0.5 µg/mL (≈ 0.944 µM)

Question: And the “MICs, fold lower than tetracycline” value ([3]; Acinetobacter lwoffli, S. maltophila, and streptococci)?
Answer: 2-4 fold

Question: And the MIC50 ([3]; Enterobacter cloacae, n=29, read-out: MIC50)?
Answer: 4 µg/mL (≈ 7.55 µM)

Question: What about the MIC90 ([3]; Enterobacter cloacae, n=29, read-out: MIC90) of the same compound?
Answer: 8 µg/mL (≈ 15.1 µM)

Question: And the MIC50 ([3]; Escherichia coli, n=40, read-out: MIC50)?
Answer: 2 µg/mL (≈ 3.78 µM)

Question: What about the MIC90 ([3]; Escherichia coli, n=40, read-out: MIC90) of the same compound?
Answer: 4 µg/mL (≈ 7.55 µM)

Question: And the MIC50 ([3]; Kiebsielia oxytoca, n=30, read-out: MIC50)?
Answer: 1 µg/mL (≈ 1.89 µM)

Question: What about the MIC90 ([3]; Kiebsielia oxytoca, n=30, read-out: MIC90) of the same compound?
Answer: 4 µg/mL (≈ 7.55 µM)

Question: What about the MIC50 ([3]; Klebsiella aerogenes, Enterobacter aerogenes, n=30, read-out: MIC50) of the same compound?
Answer: 2 µg/mL (≈ 3.78 µM)

Question: And the MIC90 ([3]; Klebsiella aerogenes, Enterobacter aerogenes, n=30, read-out: MIC90)?
Answer: 2 µg/mL (≈ 3.78 µM)

Question: What about the MIC50 ([3]; Klebsiella pneumoniae, Klebsiella pneumonia, n=27, read-out: MIC50) of the same compound?
Answer: 4 µg/mL (≈ 7.55 µM)

Question: What about the MIC90 ([3]; Klebsiella pneumoniae, Klebsiella pneumonia, n=27, read-out: MIC90) of the same compound?
Answer: 16 µg/mL (≈ 30.2 µM)

Question: What about the MIC50 ([3]; Morganella morganii, n=30, read-out: MIC50) of the same compound?
Answer: 8 µg/mL (≈ 15.1 µM)

Question: And the MIC90 ([3]; Morganella morganii, n=30, read-out: MIC90)?
Answer: 16 µg/mL (≈ 30.2 µM)

Question: And the MIC50 ([3]; Proteus vulgaris, n=29, read-out: MIC50)?
Answer: 8 µg/mL (≈ 15.1 µM)

Question: And the MIC90 ([3]; Proteus vulgaris, n=29, read-out: MIC90)?
Answer: > 16 µg/mL

Question: What about the MIC50 ([3]; Salmonella species, n=30) of the same compound?
Answer: 2 µg/mL (≈ 3.78 µM)

Question: And the MIC90 ([3]; Salmonella species, n=30)?
Answer: 2 µg/mL (≈ 3.78 µM)

Question: What about the MIC50 ([3]; Serratia marcescens, n=30, read-out: MIC50) of the same compound?
Answer: 4 µg/mL (≈ 7.55 µM)

Question: What about the MIC90 ([3]; Serratia marcescens, n=30, read-out: MIC90) of the same compound?
Answer: 8 µg/mL (≈ 15.1 µM)

Question: What about the MIC50 ([3]; Shigella species, n=30, read-out: MIC50) of the same compound?
Answer: 0.5 µg/mL (≈ 0.944 µM)

Question: What about the MIC50 ([3]; Staphylococcus aureus, Staphylococcus aureus (MRSA PVL+), n=30, read-out: MIC50) of the same compound?
Answer: 0.25 µg/mL (≈ 0.472 µM)

Question: What about the MIC90 ([3]; Staphylococcus aureus, Staphylococcus aureus (MRSA PVL+), n=30, read-out: MIC90) of the same compound?
Answer: 0.25 µg/mL (≈ 0.472 µM)

Question: And the MIC50 ([3]; Staphylococcus aureus, Staphylococcus aureus MRSA (includes MRSA PVL+ group), n=105, read-out: MIC50)?
Answer: 0.5 µg/mL (≈ 0.944 µM)

Question: What about the MIC90 ([3]; Staphylococcus aureus, Staphylococcus aureus MRSA (includes MRSA PVL+ group), n=105, read-out: MIC90) of the same compound?
Answer: 2 µg/mL (≈ 3.78 µM)

Question: What about the MIC50 ([3]; Stenotrophomonas maltophilia, n=29, read-out: MIC50) of the same compound?
Answer: 0.5 µg/mL (≈ 0.944 µM)

Question: And the MIC90 ([3]; Stenotrophomonas maltophilia, n=29, read-out: MIC90)?
Answer: 2 µg/mL (≈ 3.78 µM)

Question: And the MIC50 ([3]; Streptococcus anginosus, n=20, read-out: MIC50)?
Answer: 0.06 µg/mL (≈ 0.113 µM)

Question: What about the MIC90 ([3]; Streptococcus anginosus, n=20, read-out: MIC90) of the same compound?
Answer: 0.25 µg/mL (≈ 0.472 µM)

Question: And the MIC50 ([3]; Streptococcus intermedius, n=30, read-out: MIC50)?
Answer: 0.12 µg/mL (≈ 0.227 µM)

Question: And the MIC90 ([3]; Streptococcus intermedius, n=30, read-out: MIC90)?
Answer: 0.12 µg/mL (≈ 0.227 µM)

Question: What about the MIC50 ([3]; Streptococcus mitis, n=29, read-out: MIC50) of the same compound?
Answer: 0.12 µg/mL (≈ 0.227 µM)

Question: What about the MIC90 ([3]; Streptococcus mitis, n=29, read-out: MIC90) of the same compound?
Answer: 0.25 µg/mL (≈ 0.472 µM)

Question: What about the MIC50 ([3]; Streptococcus sanguis, n=18, read-out: MIC50) of the same compound?
Answer: 0.06 µg/mL (≈ 0.113 µM)

Question: What about the MIC90 ([3]; Streptococcus sanguis, n=18, read-out: MIC90) of the same compound?
Answer: 0.12 µg/mL (≈ 0.227 µM)

Question: What about the “MICs, fold higher than those of tigecycline” value ([3]; evaluated Gram-negative and Gram-positive pathogens, generally) of the same compound?
Answer: 2-4 fold

Question: And the “log10 reduction in CFU versus the 72 hour untreated control, IV” value ([4]; 25 mg/kg IV at 5, 24 and 48 hours)?
Answer: 3.40±0.31 log10

Question: What about the “log10 reduction in CFU versus the 72 hour untreated control, oral” value ([4]; 100 mg/kg orally at 5, 24, 48 hours (FIG. 4)) of the same compound?
Answer: 2.93±0.27 log10

Question: And the “MICs, fold higher than those of tigecycline” value ([5]; Gram-positive aerobic pathogens, generally)?
Answer: 2-4 fold

Question: What about the “MICs relative to tetracycline” value ([5]; pneumococci and beta-hemolytic streptococci) of the same compound?
Answer: several-fold lower than those of tetracycline

Question: And the “MICs relative to tetracycline” value ([5]; staphylococci)?
Answer: comparable to those of tetracycline

Question: What about the “MIC EC970 TetK” value [6] of the same compound?
Answer: 0.5

Question: What about the bioavailability [7] of the same compound?
Answer: 48.3%

Question: And the MIC50 ([8]; TET NS, n=32)?
Answer: 0.12

Question: What about the MIC90 ([8]; TET NS, n=32) of the same compound?
Answer: 0.25

Question: And the MIC50 ([8]; TET S, n=65)?
Answer: 0.06

Question: What about the MIC90 ([8]; TET S, n=65) of the same compound?
Answer: 0.12

From patent US20170107179A1 (Tetraphase Pharmaceuticals, Inc., priority 2010, published 2017)
